Laboratory results: BindingDB's records for doi:10.1016/j.vascn.2014.07.002 (University of Oxford, 2014)

Key:
[1] = Inhibition of rapid delayed inward rectifying potassium current (IKr) measured using manual patch clamp assay
[2] = biological target: Potassium voltage-gated channel subfamily H member 2 (Homo sapiens, UniProt Q12809); assay: Inhibition of rapid delayed inward rectifying potassium current (IKr) measured using manual patch clamp assay
Sequence of Potassium voltage-gated channel subfamily H member 2 (Q12809 whole entry): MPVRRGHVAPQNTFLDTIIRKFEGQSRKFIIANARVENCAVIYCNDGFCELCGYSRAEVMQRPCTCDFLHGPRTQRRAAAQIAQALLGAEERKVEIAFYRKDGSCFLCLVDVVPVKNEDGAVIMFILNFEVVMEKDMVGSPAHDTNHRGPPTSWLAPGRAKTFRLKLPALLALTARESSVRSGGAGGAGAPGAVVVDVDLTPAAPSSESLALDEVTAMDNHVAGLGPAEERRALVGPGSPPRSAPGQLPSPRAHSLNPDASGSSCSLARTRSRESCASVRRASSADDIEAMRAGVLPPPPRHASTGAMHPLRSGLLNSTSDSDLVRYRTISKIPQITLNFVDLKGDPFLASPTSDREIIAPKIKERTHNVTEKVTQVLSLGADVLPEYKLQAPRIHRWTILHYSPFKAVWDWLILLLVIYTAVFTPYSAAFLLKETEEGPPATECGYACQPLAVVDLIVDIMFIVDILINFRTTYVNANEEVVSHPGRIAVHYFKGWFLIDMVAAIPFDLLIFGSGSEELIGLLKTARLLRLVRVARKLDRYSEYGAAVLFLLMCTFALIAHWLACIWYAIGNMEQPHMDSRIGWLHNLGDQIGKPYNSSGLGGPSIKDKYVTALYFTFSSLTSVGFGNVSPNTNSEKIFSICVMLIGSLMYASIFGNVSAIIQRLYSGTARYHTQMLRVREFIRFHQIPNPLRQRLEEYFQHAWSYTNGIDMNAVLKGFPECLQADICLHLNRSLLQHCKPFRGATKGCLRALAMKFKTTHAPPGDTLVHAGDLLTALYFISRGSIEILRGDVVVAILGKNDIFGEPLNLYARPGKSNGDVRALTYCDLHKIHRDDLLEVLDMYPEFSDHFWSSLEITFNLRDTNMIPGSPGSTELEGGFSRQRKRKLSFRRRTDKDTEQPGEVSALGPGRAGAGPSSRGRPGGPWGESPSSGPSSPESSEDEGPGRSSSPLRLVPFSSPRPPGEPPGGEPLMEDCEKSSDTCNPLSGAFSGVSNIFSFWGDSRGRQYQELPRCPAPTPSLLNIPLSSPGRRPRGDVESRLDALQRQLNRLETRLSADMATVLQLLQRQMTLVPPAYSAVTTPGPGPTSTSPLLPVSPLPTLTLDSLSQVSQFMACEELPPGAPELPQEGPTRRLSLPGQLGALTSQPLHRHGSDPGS

For `C[C@H]1CN(C[C@H](Cc2ccccc2)C(=O)NCC(=O)O)CC[C@@]1(C)c1cccc(O)c1` [ADL 8-2698], the IC50 [1] was 794 µM.
In the case of `O=C(O)c1ccc(-n2nc(-c3ccccc3O)nc2-c2ccccc2O)cc1` [CHEBI:49005], the IC50 [2] is reported as 3980 µM.
